Laboratory results from PMC10382351, “In vivo evaluation of a novel ^18F-labeled PET radioligand for translocator protein 18 kDa (TSPO) in monkey brain” (European Journal of Nuclear Medicine and Molecular Imaging, 2023).

Columns and labels:
[1] = Parent radioactivity and radiometabolite analysis in arterial plasma (HPLC); format: in vivo, rhesus monkey; conditions: for Peak parent concentration in arterial plasma: n = 3
Procedure: (§1) Arterial blood sampling was performed in all scans to determine plasma parent concentration of the radioligand. Seventeen blood samples were drawn from an implanted port in the femoral artery of the monkeys during the 180-min PET scans at 15-s intervals for the first two minutes, followed by samples at 3, 5, 10, 30, 60, 90, 120, 150, and 180 min (volumes varied from 1.0 to 5.0 mL). Radioactivity in plasma was quantified and corrected for radiometabolites using high-performance liquid chromatography (HPLC). The separation was performed on an X-Terra C18 column (10 µm, 7.8 × 300 mm) with an isocratic mobile phase composed of methanol: water: triethylamine (77.5:22.5:0.1 by vol.) at a flow rate of 5 mL/min. The plasma free fraction (fP) was measured by ultrafiltration, as previously described. A standard fP was measured in a frozen aliquot of pooled plasma in parallel with the experimental blood sample, and as internal standard it was then used to normalize the measured fP of the blood samples.

[2] = Plasma free fraction (fP) by ultrafiltration; format: in vitro ADME, rhesus monkey; conditions: for Plasma free fraction fP / fraction unbound: n = 3; for fraction unbound: male, rhesus monkey, plasma
Procedure: as §1

[3] = representative radiochromatogram, baseline study, at 30 minutes

- Average percentage of parent in plasma ([1]; at 120 min, roughly the same until 180 min, HPLC): 25%
- Peak parent concentration in arterial plasma ([1]; baseline): 4.1 ± 0.4 SUV
- Peak parent concentration in arterial plasma ([1]; blocked with PK11195 5 mg/kg): 7.5 ± 1.7 SUV
- Number of radiometabolites in plasma (more hydrophilic than the parent) ([1]; monkey arterial plasma, HPLC): At least five
- Parent in arterial plasma [1, 3]: 36%
- Total radiometabolites in arterial plasma [1, 3]: 64%
- Plasma free fraction fP ([2]; baseline scans): 6 ± 1%
- Plasma free fraction fP ([2]; blocked scans (PK11195)): 19 ± 4%
- fraction unbound ([2]; baseline scans): 0.064 ± 0.007
- fraction unbound ([2]; blocked scans (PK11195)): 0.188 ± 0.036
- fPblock ([2]; one monkey, after PBR28 pre-blockade (5 mg/kg)): 19.3%
- fPbase ([2]; one monkey, baseline scan of the PBR28 experiment): 5.7%
- fP of the internal standard (frozen aliquot of pooled plasma) ([2]; six PET scans): 2.4 to 3.8%
SMILES: CC[C@@H](C)N(C)C(=O)c1nc(-c2cccc([18F])c2)c2ccccc2n1 [[^18F]SF51]
